Patent US20260130395A1, “Water Dispersible Botanical Compositions” (Aquila Black Limited, priority 2021, published 2026)

Test: Stability of cannabinoid compounds and Vitamin E components in Beverage 2 (AB Red) by LCMSMS
Assay type: physicochemical

CCCCCc1cc2c(c(O)c1C(=O)O)[C@@H]1C=C(C)CC[C@H]1C(C)(C)O2 [D9 THCA, delta-9-tetrahydrocannabinolic acid]
Stability of Plant-Derived Cannabinoid Compounds in AB Red (stored at 8° C., 0 days): 1.35 µg/mL
Stability of Plant-Derived Cannabinoid Compounds in AB Red (stored at 8° C., 1 days): 1.34 µg/mL
Stability of Plant-Derived Cannabinoid Compounds in AB Red (stored at 8° C., 2 days): 1.34 µg/mL
Stability of Plant-Derived Cannabinoid Compounds in AB Red (stored at 8° C., 3 days): 1.35 µg/mL
Stability of Plant-Derived Cannabinoid Compounds in AB Red (stored at 8° C., 5 days): 1.36 µg/mL
Stability of Plant-Derived Cannabinoid Compounds in AB Red (stored at 8° C., 8 days): 1.35 µg/mL
Stability of Plant-Derived Cannabinoid Compounds in AB Red (stored at 8° C., 9 days): 1.36 µg/mL
Stability of Plant-Derived Cannabinoid Compounds in AB Red (stored at 8° C., 10 days): 1.35 µg/mL
Stability of Plant-Derived Cannabinoid Compounds in AB Red (stored at 8° C., 11 days): 1.35 µg/mL
Stability of Plant-Derived Cannabinoid Compounds in AB Red (stored at 8° C., 12 days): 1.32 µg/mL
Stability of Plant-Derived Cannabinoid Compounds in AB Red (stored at 8° C., 15 days): 1.33 µg/mL
Stability of Plant-Derived Cannabinoid Compounds in AB Red (stored at 8° C., 16 days): 1.31 µg/mL
Stability of Plant-Derived Cannabinoid Compounds in AB Red (stored at 8° C., 17 days): 1.34 µg/mL
Stability of Plant-Derived Cannabinoid Compounds in AB Red (stored at 8° C., 18 days): 1.35 µg/mL
Stability of Plant-Derived Cannabinoid Compounds in AB Red (stored at 8° C., 19 days): 1.32 µg/mL
Stability of Plant-Derived Cannabinoid Compounds in AB Red (stored at 8° C., 22 days): 1.34 µg/mL
Stability of Plant-Derived Cannabinoid Compounds in AB Red (stored at 8° C., 23 days): 1.33 µg/mL
Stability of Plant-Derived Cannabinoid Compounds in AB Red (stored at 8° C., 24 days): 1.33 µg/mL
Stability of Plant-Derived Cannabinoid Compounds in AB Red (stored at 8° C., 25 days): 1.34 µg/mL
Stability of Plant-Derived Cannabinoid Compounds in AB Red (stored at 8° C., 26 days): 1.33 µg/mL
Stability of Plant-Derived Cannabinoid Compounds in AB Red (stored at 8° C., 29 days): 1.35 µg/mL
Stability of Plant-Derived Cannabinoid Compounds in AB Red (stored at 8° C., 30 days): 1.31 µg/mL
Stability of Plant-Derived Cannabinoid Compounds in AB Red (stored at 8° C., 60 days): 1.32 µg/mL
Stability of Plant-Derived Cannabinoid Compounds in AB Red (stored at 8° C., 90 days): 1.34 µg/mL
Stability of Plant-Derived Cannabinoid Compounds in AB Red (stored at 8° C., 120 days): 1.30 µg/mL
Stability of Plant-Derived Cannabinoid Compounds in AB Red (stored at 8° C., 150 days): 1.34 µg/mL
Stability of Plant-Derived Cannabinoid Compounds in AB Red (stored at 8° C., 180 days): 1.30 µg/mL
Stability of Plant-Derived Cannabinoid Compounds in AB Red (stored at 8° C., 210 days): 1.33 µg/mL
Stability of Plant-Derived Cannabinoid Compounds in AB Red (stored at 8° C., 240 days): 1.32 µg/mL
Stability of Plant-Derived Cannabinoid Compounds in AB Red (stored at 8° C., 270 days): 1.33 µg/mL
Stability of Plant-Derived Cannabinoid Compounds in AB Red (stored at 8° C., 300 days): 1.30 µg/mL
Stability of Plant-Derived Cannabinoid Compounds in AB Red (stored at 8° C., 330 days): 1.34 µg/mL
Stability of Plant-Derived Cannabinoid Compounds in AB Red (stored at 8° C., 360 days): 1.31 µg/mL
Stability of Plant-Derived Cannabinoid Compounds in AB Red (stored at 8° C., 390 days): 1.29 µg/mL
Stability of Plant-Derived Cannabinoid Compounds in AB Red (stored at 8° C., 420 days): 1.29 µg/mL
Stability of Plant-Derived Cannabinoid Compounds in AB Red (stored at 8° C., 450 days): 1.31 µg/mL
Stability of Plant-Derived Cannabinoid Compounds in AB Red (stored at 8° C., 480 days): 1.28 µg/mL
Stability of Plant-Derived Cannabinoid Compounds in AB Red (stored at 8° C., 510 days): 1.25 µg/mL
Stability of Plant-Derived Cannabinoid Compounds in AB Red (stored at 8° C., 540 days): 1.26 µg/mL
Stability of Plant-Derived Cannabinoid Compounds in AB Red (stored at 8° C., 570 days): 1.24 µg/mL
Stability of Plant-Derived Cannabinoid Compounds in AB Red (stored at 21-25° C., 0 days): 1.35 µg/mL
Stability of Plant-Derived Cannabinoid Compounds in AB Red (stored at 21-25° C., 1 days): 1.34 µg/mL
Stability of Plant-Derived Cannabinoid Compounds in AB Red (stored at 21-25° C., 2 days): 1.30 µg/mL
Stability of Plant-Derived Cannabinoid Compounds in AB Red (stored at 21-25° C., 3 days): 1.32 µg/mL
Stability of Plant-Derived Cannabinoid Compounds in AB Red (stored at 21-25° C., 5 days): 1.36 µg/mL
Stability of Plant-Derived Cannabinoid Compounds in AB Red (stored at 21-25° C., 8 days): 1.36 µg/mL
Stability of Plant-Derived Cannabinoid Compounds in AB Red (stored at 21-25° C., 9 days): 1.35 µg/mL
Stability of Plant-Derived Cannabinoid Compounds in AB Red (stored at 21-25° C., 10 days): 1.33 µg/mL
Stability of Plant-Derived Cannabinoid Compounds in AB Red (stored at 21-25° C., 11 days): 1.33 µg/mL
Stability of Plant-Derived Cannabinoid Compounds in AB Red (stored at 21-25° C., 12 days): 1.33 µg/mL
Stability of Plant-Derived Cannabinoid Compounds in AB Red (stored at 21-25° C., 15 days): 1.30 µg/mL
Stability of Plant-Derived Cannabinoid Compounds in AB Red (stored at 21-25° C., 16 days): 1.36 µg/mL
Stability of Plant-Derived Cannabinoid Compounds in AB Red (stored at 21-25° C., 17 days): 1.35 µg/mL
Stability of Plant-Derived Cannabinoid Compounds in AB Red (stored at 21-25° C., 18 days): 1.36 µg/mL
Stability of Plant-Derived Cannabinoid Compounds in AB Red (stored at 21-25° C., 19 days): 1.31 µg/mL
Stability of Plant-Derived Cannabinoid Compounds in AB Red (stored at 21-25° C., 22 days): 1.34 µg/mL
Stability of Plant-Derived Cannabinoid Compounds in AB Red (stored at 21-25° C., 23 days): 1.36 µg/mL
Stability of Plant-Derived Cannabinoid Compounds in AB Red (stored at 21-25° C., 24 days): 1.30 µg/mL
Stability of Plant-Derived Cannabinoid Compounds in AB Red (stored at 21-25° C., 25 days): 1.35 µg/mL
Stability of Plant-Derived Cannabinoid Compounds in AB Red (stored at 21-25° C., 26 days): 1.32 µg/mL
Stability of Plant-Derived Cannabinoid Compounds in AB Red (stored at 21-25° C., 29 days): 1.33 µg/mL
Stability of Plant-Derived Cannabinoid Compounds in AB Red (stored at 21-25° C., 30 days): 1.34 µg/mL
Stability of Plant-Derived Cannabinoid Compounds in AB Red (stored at 21-25° C., 60 days): 1.28 µg/mL
Stability of Plant-Derived Cannabinoid Compounds in AB Red (stored at 21-25° C., 90 days): 1.34 µg/mL
Stability of Plant-Derived Cannabinoid Compounds in AB Red (stored at 21-25° C., 120 days): 1.34 µg/mL
Stability of Plant-Derived Cannabinoid Compounds in AB Red (stored at 21-25° C., 150 days): 1.28 µg/mL
Stability of Plant-Derived Cannabinoid Compounds in AB Red (stored at 21-25° C., 180 days): 1.30 µg/mL
Stability of Plant-Derived Cannabinoid Compounds in AB Red (stored at 21-25° C., 210 days): 1.33 µg/mL
Stability of Plant-Derived Cannabinoid Compounds in AB Red (stored at 21-25° C., 240 days): 1.31 µg/mL
Stability of Plant-Derived Cannabinoid Compounds in AB Red (stored at 21-25° C., 270 days): 1.27 µg/mL
Stability of Plant-Derived Cannabinoid Compounds in AB Red (stored at 21-25° C., 300 days): 1.27 µg/mL
Stability of Plant-Derived Cannabinoid Compounds in AB Red (stored at 21-25° C., 330 days): 1.28 µg/mL
Stability of Plant-Derived Cannabinoid Compounds in AB Red (stored at 21-25° C., 360 days): 1.29 µg/mL
Stability of Plant-Derived Cannabinoid Compounds in AB Red (stored at 21-25° C., 390 days): 1.26 µg/mL
Stability of Plant-Derived Cannabinoid Compounds in AB Red (stored at 21-25° C., 420 days): 1.26 µg/mL
Stability of Plant-Derived Cannabinoid Compounds in AB Red (stored at 21-25° C., 450 days): 1.31 µg/mL
Stability of Plant-Derived Cannabinoid Compounds in AB Red (stored at 21-25° C., 480 days): 1.29 µg/mL
Stability of Plant-Derived Cannabinoid Compounds in AB Red (stored at 21-25° C., 510 days): 1.27 µg/mL
Stability of Plant-Derived Cannabinoid Compounds in AB Red (stored at 21-25° C., 540 days): 1.29 µg/mL
Stability of Plant-Derived Cannabinoid Compounds in AB Red (stored at 21-25° C., 570 days): 1.24 µg/mL
